In publication PMC8557474, “Reliability of the AR-CALUX®In Vitro Method Used to Detect Chemicals with (Anti)Androgen Activity: Results of an International Ring Trial” (Toxicological Sciences, 2021):
In brackets after ≈: the same amount, converted by molar mass.

Key:
[1] = Solubility testing (visual inspection, centrifugation, microscopy)
Description: It details the cell cultivation and seeding procedure, the preparation of the reference, control and test chemicals, the procedure for agonist testing and antagonist testing, prescreen runs, and comprehensive runs, as well as data analysis and data interpretation. This SOP also includes references to the SOPs for solubility testing and cytotoxicity testing. […] Solubility was tested both in the solvent and in media under similar circumstances as would be required during the (ant)agonist testing. The initial concentration to be tested was prescribed at 50 mg/ml. Starting from the highest soluble concentration, cytotoxicity was determined with an LDH assay. Visual checking of cytotoxicity in all wells of the plate was however also required for each run.
This included an investigation by heating, centrifugation, microscopy, and visual checking. […] For the purpose of the validation study, the labs were requested to start from 50 mg/ml as the maximal stock concentration to be tested.

[2] = target: T1, human androgen receptor (hAR) (Homo sapiens, UniProt P10275); experiment: AR-CALUX antagonist assay (medium spiked with DHT at EC50); type: cell-based
T1 construct: host or cells: U2-OS human osteosarcoma cells (ATCC HTB 96), stably transfected (AR-CALUX cell line)
T1 sequence (P10275 1-920): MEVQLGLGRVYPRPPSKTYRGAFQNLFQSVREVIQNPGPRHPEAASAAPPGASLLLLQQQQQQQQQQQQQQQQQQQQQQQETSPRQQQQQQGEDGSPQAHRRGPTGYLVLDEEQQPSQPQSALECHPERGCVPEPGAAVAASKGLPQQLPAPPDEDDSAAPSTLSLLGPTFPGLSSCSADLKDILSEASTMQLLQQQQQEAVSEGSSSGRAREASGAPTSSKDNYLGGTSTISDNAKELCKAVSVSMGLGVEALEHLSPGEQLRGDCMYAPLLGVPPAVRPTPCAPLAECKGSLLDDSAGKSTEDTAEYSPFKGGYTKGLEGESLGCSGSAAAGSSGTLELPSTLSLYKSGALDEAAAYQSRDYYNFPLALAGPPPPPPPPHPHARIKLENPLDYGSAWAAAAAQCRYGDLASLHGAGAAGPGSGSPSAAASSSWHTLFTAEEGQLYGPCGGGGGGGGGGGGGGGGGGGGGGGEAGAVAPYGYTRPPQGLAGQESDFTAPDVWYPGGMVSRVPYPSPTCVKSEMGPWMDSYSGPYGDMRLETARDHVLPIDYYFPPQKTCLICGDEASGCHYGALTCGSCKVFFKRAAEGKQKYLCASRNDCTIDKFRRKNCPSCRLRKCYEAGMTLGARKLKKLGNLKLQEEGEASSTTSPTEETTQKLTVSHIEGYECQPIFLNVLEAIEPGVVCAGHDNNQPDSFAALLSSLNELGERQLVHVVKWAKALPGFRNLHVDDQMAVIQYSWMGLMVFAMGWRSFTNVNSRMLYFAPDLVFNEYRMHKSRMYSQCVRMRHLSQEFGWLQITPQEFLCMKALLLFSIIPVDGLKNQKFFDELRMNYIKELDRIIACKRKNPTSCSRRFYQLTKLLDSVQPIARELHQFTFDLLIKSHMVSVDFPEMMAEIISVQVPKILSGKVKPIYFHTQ
Excerpt: (§1) The AR-CALUX® cell line was created by BioDetection Systems (BDS). It can be purchased from BDS with a license (https://www.biodetectionsystems.com). The human osteosarcoma cell line U2-OS (ATCC HTB 96) was transfected with 2 constructs: pSG5-neo-hAR carrying the cDNA of a human androgen receptor (hAR) under a constitutive promoter, and, a luciferase reporter gene which is preceded by a triple tandem of AREs in front of a TATA box (3x ARE Luc). […] The AR-CALUX® cell line was obtained from the test method developer BDS. EURL ECVAM prepared a master cell bank and a large working cell bank which were tested for the absence of mycoplasma, bacteria, fungi, and yeast and for the absence of Hepatitis B and C and HIV. In addition, to verifying the authenticity of the cell line, Short Tandem Repeat (STR) profiling was carried out to confirm the test system to be U2-OS cells. […] The laboratories were requested, at the end of each part of the study (Parts 1, 2, and 3), to perform a mycoplasma test of their choice. Additional aliquots were sent to EURL ECVAM for a reanalysis of authenticity.
(§2) Subsequently, the test chemical was assessed with a prescreen run (dilution steps of 10) and simultaneously with the quantitative cytotoxicity test to determine (1) cytotoxic concentrations, (2) the response, and (3) the appropriate dose range to be tested. […] The cytotoxicity test was performed once more. Test chemicals were diluted in media and consisted of 8 serial dilutions. Each dilution was tested in triplicate.
(§3) Each experiment (run) was comprised of a maximum of 6 plates. The first plate would contain 8 serial dilutions of the reference chemical DHT (for agonism) or Flutamide (for antagonism), while the positive and negative controls were added at fixed concentrations. In addition, a solvent control was added (medium without the chemical but with DMSO 0.1%).
For the antagonist assay, the medium was supplemented with DHT at EC50 concentration (standard assay). […] Each antagonist assay was accompanied by a specificity control test carried out on the same plate.
A. Positive (competitive antagonist) when the relative induction (Yc) of the test item is ≤ 80% (REF RPC80) for two or more consecutive concentrations and […]

[3] = target: T1, human androgen receptor (hAR); experiment: cell-based; type: cell-based
Excerpt: as §1, §2, §3
A. Positive when the relative induction (Yc) of the test item is ≥ 10% (REF RPC10) for two or more consecutive concentrations.

[4] = DMSO, organic solvent or mixture, thermodynamic from solid, Solubility in DMSO, Lab 1, DMSO, Lab 1, highest tested 50 mg/ml
[5] = DMSO, organic solvent or mixture, thermodynamic from solid, Solubility in DMSO, Lab 2, DMSO, Lab 2, highest tested 50 mg/ml
[6] = DMSO, organic solvent or mixture, thermodynamic from solid, Solubility in DMSO, Lab 3, DMSO, Lab 3, highest tested 50 mg/ml
[7] = DMSO, organic solvent or mixture, thermodynamic from solid, Solubility in DMSO, Lab 4, DMSO, Lab 4, highest tested 50 mg/ml
[8] = assay medium, aqueous buffer, kinetic from dmso stock, Solubility in medium, Lab 1, assay medium, Lab 1
[9] = assay medium, aqueous buffer, kinetic from dmso stock, Solubility in medium, Lab 2, assay medium, Lab 2
[10] = assay medium, aqueous buffer, kinetic from dmso stock, Solubility in medium, Lab 3, assay medium, Lab 3
[11] = assay medium, aqueous buffer, kinetic from dmso stock, Solubility in medium, Lab 4, assay medium, Lab 4

CC(O)(CS(=O)(=O)c1ccc(F)cc1)C(=O)Nc1ccc(C#N)c(C(F)(F)F)c1 (stereo not shown) [Bicalutamide]
solubility [1, 4]: > 50000 µg/mL
solubility [1, 5]: > 50000 µg/mL
solubility [1, 6]: > 50000 µg/mL
solubility [1, 7]: > 50000 µg/mL
solubility [1, 8]: > 50 µg/mL
solubility [1, 9]: > 50 µg/mL
solubility [1, 10]: > 50 µg/mL
solubility [1, 11]: > 50 µg/mL

C[C@]12C=CC3=C4CCC(=O)C=C4CC[C@H]3[C@@H]1CC[C@@H]2O [17β-Trenbolone]
Antagonist classification per run, Lab 1 [2]: N N N
Antagonist classification per run, Lab 2 [2]: N N N
Antagonist classification per run, Lab 3 [2]: − N N
Antagonist classification per run, Lab 4 [2]: N N N
Agonist classification per run, Lab 1 [3]: P P P
Agonist classification per run, Lab 2 [3]: P P P
Agonist classification per run, Lab 3 [3]: P P P
Agonist classification per run, Lab 4 [3]: P P P
EC50 [3]: 0.245 nM

C[C@]12Cc3c[nH]nc3C[C@@H]1CC[C@@H]1[C@@H]2CC[C@@]2(C)[C@H]1CC[C@]2(C)O [Stanozolol]
solubility ([1]; aqueous buffer, kinetic from dmso stock, Solubility in medium, Lab 1, assay medium, Lab 1): 5 µg/mL (≈ 15.2 µM)
solubility ([1]; aqueous buffer, kinetic from dmso stock, Solubility in medium, Lab 2, assay medium, Lab 2): 5 µg/mL (≈ 15.2 µM)
solubility ([1]; aqueous buffer, kinetic from dmso stock, Solubility in medium, Lab 3, assay medium, Lab 3): 2 µg/mL (≈ 6.09 µM)
solubility ([1]; aqueous buffer, kinetic from dmso stock, Solubility in medium, Lab 4, assay medium, Lab 4): 5 µg/mL (≈ 15.2 µM)
solubility ([1]; organic solvent or mixture, thermodynamic from solid, Solubility in DMSO, Lab 1, DMSO, Lab 1, highest tested 50 mg/ml): 5000 µg/mL (≈ 15200 µM)
solubility ([1]; organic solvent or mixture, thermodynamic from solid, Solubility in DMSO, Lab 2, DMSO, Lab 2, highest tested 50 mg/ml): > 50000 µg/mL
solubility ([1]; organic solvent or mixture, thermodynamic from solid, Solubility in DMSO, Lab 3, DMSO, Lab 3, highest tested 50 mg/ml): 15000 µg/mL (≈ 45700 µM)
solubility ([1]; organic solvent or mixture, thermodynamic from solid, Solubility in DMSO, Lab 4, DMSO, Lab 4, highest tested 50 mg/ml): > 50000 µg/mL

CC(=O)O[C@]1(C(C)=O)CC[C@H]2[C@@H]3C[C@H](C)C4=CC(=O)CC[C@]4(C)[C@H]3CC[C@@]21C [Medroxyprogesterone acetate]
solubility [1, 4]: 1500 µg/mL
solubility [1, 5]: 15000 µg/mL
solubility [1, 6]: 15000 µg/mL
solubility [1, 7]: 5000 µg/mL
solubility [1, 8]: 1.5 µg/mL
solubility [1, 9]: 5 µg/mL
solubility [1, 10]: 15 µg/mL
solubility [1, 11]: 5 µg/mL

CCCCC(CC)COC(=O)c1ccccc1C(=O)OCC(CC)CCCC (stereo not shown) [Diethylhexyl phthalate]
Solubility in DMSO, Lab 1 ([1]; DMSO, Lab 1, highest tested 50 mg/ml): 15000 µg/mL (≈ 38400 µM)
Solubility in DMSO, Lab 2 ([1]; DMSO, Lab 2, highest tested 50 mg/ml): > 50000 µg/mL
Solubility in DMSO, Lab 3 ([1]; DMSO, Lab 3, highest tested 50 mg/ml): > 50000 µg/mL
Solubility in DMSO, Lab 4 ([1]; DMSO, Lab 4, highest tested 50 mg/ml): > 50000 µg/mL
Solubility in medium, Lab 1 ([1]; assay medium, Lab 1): 15 µg/mL (≈ 38.4 µM)
Solubility in medium, Lab 2 ([1]; assay medium, Lab 2): 15 µg/mL (≈ 38.4 µM)
Solubility in medium, Lab 3 ([1]; assay medium, Lab 3): > 50 µg/mL
Solubility in medium, Lab 4 ([1]; assay medium, Lab 4): > 50 µg/mL

CC(=O)S[C@@H]1CC2=CC(=O)CC[C@]2(C)[C@H]2CC[C@@]3(C)[C@@H](CC[C@@]34CCC(=O)O4)[C@H]12 [Spironolactone]
solubility [1, 4]: 15000 µg/mL (≈ 36000 µM)
solubility [1, 5]: > 50000 µg/mL
solubility [1, 6]: > 50000 µg/mL
solubility [1, 7]: > 50000 µg/mL
solubility [1, 8]: 15 µg/mL (≈ 36 µM)
solubility [1, 9]: > 50 µg/mL
solubility [1, 10]: > 50 µg/mL
solubility [1, 11]: > 50 µg/mL
